The values that follow come from US20140328933A1, “NOVEL FORMULATIONS AND METHODS” (priority 2010, published 2014).

This experiment relates to Angiogenesis in the CAM Model. The experiment can be described thus: Chorioallantoic Membrane Angiogenesis (CAM) Model, branch points formation. It counts as in vivo. An excerpt: VIP in Chorioallantoic Membrane Angiogenesis (CAM) Model
FIG. 15 depicts the results of testing regarding Nanoparticle encapsulates.

Where no end group is shown, it is not given here.

As to “Vasoactive intestinal peptide (HSDAVFTDNYTRLRKQMAVKKYLNSILN-NH2) [VIP, peptide hormone containing 28 amino acid residues]”, where the note is “VIP 1 ng/CAM, PBS average subtracted”, the “Total # of branches [VIP (1 ng/CAM) - PBS(average)], Mean” value is 34.8. Also, the “Total # of branches [VIP (10 ng/CAM) - PBS(average)], Mean” value (VIP 10 ng/CAM, PBS average subtracted) came out at 53.6. Also, the “number of branches, Mean” value (VIP 0.1 ug/ml, 1 ng/CAM) amounted to 84.8; the “number of branches, Mean” value (VIP 1 ug/ml, 10 ng/CAM) is listed as 103.6; the “number of branches, Mean” value (VIP 10 ug/ml, 100 ng/CAM) came out at 121.7. In addition, the “Total # of branches [VIP (100 ng/CAM) - PBS(average)], Mean” value (VIP 100 ng/CAM, PBS average subtracted) amounted to 71.7.
